How the values were obtained:
Tyk2 = target: T1, Tyk2 (Homo sapiens, UniProt P29597); experiment: Tyk2 enzyme inhibition test (LANCE method); type: biochemical; settings: for inhibition at 1 µM: test compound 1 μM, read-out: Inhibitory rate (%) Tyk2 1 μM; for inhibition at 10 µM: test compound 10 μM, read-out: Inhibitory rate (%) Tyk2 10 μM
T1 construct: purchased Invitrogen
Experimental: Tyk2 Enzyme Inhibition Test
(§1) Tyk2 enzyme inhibitory activity of test compounds was measured by LANCE method (PerkinElmer). First, a test compound diluted with assay buffer (50 mM HEPES (pH=7.5), 10 mM MgCl2, 1 mM EGTA, 2 mM DTT, 0.01% Tween20, 0.01% BSA) was added to 384-well plate at 2 μL each. Then, a Tyk2 (Invitrogen) solution and a fluorescence-labeled peptide substrate (ULight-JAK1, PerkinElmer) solution diluted with assay buffer at 375 ng/mL and 300 nM, respectively were added at 2 μL each. Then, enzyme reaction was started by adding 2 μL each of ATP solution prepared with assay buffer at 30 μM. After the reaction at room temperature for 1 hr, Detection Buffer (PerkinElmer) prepared to be 20 mM EDTA, 4 nM europium-labeled anti-phosphotyrosine antibody (PerkinElmer) was added at 6 μL each. After standing at room temperature for 1 hr, fluorescence intensity (excitation wavelength 340 nm, fluorescence wavelength 665 nm, delay time 100 microsecond) was measured by a plate reader, Envision (PerkinElmer). The inhibitory activity of each compound was calculated as relative value where fluorescence intensity of a well without enzyme is considered as 100% inhibition.

JAK1 = target: T2, JAK1 (Homo sapiens, UniProt P23458); experiment: JAK1 enzyme inhibition test (LANCE method); type: biochemical; settings: for inhibition at 1 µM: test compound 1 μM, read-out: Inhibitory rate (%) JAK1 1 μM
T2 construct: purchased Invitrogen
T2 sequence (P23458 whole entry): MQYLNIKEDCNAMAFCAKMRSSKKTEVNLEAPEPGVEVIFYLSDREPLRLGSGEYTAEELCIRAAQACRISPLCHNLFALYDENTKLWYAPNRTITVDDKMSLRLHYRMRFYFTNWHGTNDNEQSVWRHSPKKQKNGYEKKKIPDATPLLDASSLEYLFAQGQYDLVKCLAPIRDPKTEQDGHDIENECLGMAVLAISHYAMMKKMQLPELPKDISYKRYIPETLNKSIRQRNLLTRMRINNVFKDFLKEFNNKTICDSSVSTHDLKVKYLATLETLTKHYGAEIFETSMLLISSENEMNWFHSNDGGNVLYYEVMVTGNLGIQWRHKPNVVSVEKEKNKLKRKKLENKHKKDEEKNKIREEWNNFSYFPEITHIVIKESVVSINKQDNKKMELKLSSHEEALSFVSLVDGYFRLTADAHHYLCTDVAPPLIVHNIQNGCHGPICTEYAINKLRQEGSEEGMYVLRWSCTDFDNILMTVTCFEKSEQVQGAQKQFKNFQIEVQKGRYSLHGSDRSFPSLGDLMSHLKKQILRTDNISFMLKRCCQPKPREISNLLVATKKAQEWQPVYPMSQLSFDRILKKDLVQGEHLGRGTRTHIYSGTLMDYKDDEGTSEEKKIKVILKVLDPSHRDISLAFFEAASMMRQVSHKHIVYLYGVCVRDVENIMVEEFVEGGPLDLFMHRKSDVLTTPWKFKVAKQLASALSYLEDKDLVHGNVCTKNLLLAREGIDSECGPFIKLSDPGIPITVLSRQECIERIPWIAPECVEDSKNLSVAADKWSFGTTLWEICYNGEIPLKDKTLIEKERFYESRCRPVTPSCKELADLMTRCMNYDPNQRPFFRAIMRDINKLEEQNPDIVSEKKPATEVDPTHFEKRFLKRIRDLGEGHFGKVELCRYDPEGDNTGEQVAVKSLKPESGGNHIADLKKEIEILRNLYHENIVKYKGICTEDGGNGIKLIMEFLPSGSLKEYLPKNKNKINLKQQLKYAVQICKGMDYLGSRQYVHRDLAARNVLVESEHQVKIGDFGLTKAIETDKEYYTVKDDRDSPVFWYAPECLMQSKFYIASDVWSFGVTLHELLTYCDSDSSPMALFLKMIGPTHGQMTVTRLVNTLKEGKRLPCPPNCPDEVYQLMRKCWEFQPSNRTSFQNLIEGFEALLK
Experimental: JAK1 Enzyme Inhibition Test
as §1, with “JAK1 enzyme” for “Tyk2 enzyme”, “a JAK1” for “a Tyk2”, “at 187.5” for “at 375”, “at 150” for “at 30”

T1 sequence (P29597 whole entry): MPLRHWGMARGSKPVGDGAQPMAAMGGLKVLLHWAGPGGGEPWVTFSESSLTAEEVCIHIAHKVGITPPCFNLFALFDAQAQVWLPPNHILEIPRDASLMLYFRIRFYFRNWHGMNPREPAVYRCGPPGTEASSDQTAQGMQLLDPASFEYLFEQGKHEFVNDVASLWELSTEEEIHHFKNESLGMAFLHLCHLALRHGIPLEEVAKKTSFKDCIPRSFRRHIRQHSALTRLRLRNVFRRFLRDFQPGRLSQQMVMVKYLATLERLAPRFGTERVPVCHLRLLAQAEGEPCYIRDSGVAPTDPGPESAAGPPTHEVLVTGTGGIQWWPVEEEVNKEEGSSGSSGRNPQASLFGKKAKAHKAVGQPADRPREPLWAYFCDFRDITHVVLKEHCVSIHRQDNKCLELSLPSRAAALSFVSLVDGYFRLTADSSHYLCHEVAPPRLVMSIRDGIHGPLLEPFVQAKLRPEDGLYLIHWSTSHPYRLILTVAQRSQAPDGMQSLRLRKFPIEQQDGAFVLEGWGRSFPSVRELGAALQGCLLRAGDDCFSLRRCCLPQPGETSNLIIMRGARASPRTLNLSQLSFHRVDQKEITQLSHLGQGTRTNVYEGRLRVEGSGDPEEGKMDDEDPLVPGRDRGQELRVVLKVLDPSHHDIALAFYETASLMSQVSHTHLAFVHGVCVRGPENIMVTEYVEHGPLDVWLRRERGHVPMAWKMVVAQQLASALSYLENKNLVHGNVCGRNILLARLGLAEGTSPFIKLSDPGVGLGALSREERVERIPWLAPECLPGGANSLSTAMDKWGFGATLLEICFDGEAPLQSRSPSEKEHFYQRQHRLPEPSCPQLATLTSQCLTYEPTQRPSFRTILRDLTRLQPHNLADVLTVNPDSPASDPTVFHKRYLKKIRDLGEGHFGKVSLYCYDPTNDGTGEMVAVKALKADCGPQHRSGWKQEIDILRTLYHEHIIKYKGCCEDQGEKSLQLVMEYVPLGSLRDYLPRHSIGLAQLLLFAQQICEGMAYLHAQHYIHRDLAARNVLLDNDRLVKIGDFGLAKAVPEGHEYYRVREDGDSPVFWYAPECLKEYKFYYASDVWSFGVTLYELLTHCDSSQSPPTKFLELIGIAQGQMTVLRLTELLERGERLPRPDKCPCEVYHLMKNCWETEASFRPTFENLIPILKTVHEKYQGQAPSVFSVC

inhibition at 1 µM (Tyk2) | inhibition at 1 µM (JAK1) | inhibition at 10 µM (Tyk2) | inhibition at 10 µM (JAK1; test compound 10 μM, read-out: Inhibitory rate (%) JAK1 10 μM) | SMILES
97% | 99% |  |  | C[C@H]1CCC[C@H]1n1cc(-c2ccc(S(N)(=O)=O)cc2)c2c(=O)[nH]ccc21 (relative stereo) [Example 71, 4-(1-(cis-2-methylcyclopentyl)-4-oxo-4,5-dihydro-1H-pyrrolo[3,2-c]pyridin-3-yl)benzenesulfonamide]
100% | 90% |  |  | C[C@H]1CCC[C@H]1n1cc(-c2csc(C(N)=O)c2)c2c(=O)[nH]ccc21 (relative stereo) [Example 85, 4-(1-(cis-2-methylcyclopentyl)-4-oxo-4,5-dihydro-1H-pyrrolo[3,2-c]pyridin-3-yl)thiophene-2-carboxamide]
51% | 40% |  |  | O=c1[nH]ccc2c1c(-c1ccccc1)cn2C1CCCC1 [Example 1, 1-cyclopentyl-3-phenyl-1,5-dihydro-4H-pyrrolo[3,2-c]pyridin-4-one]
97% | 99% |  |  | NS(=O)(=O)c1ccc(-c2cn(C3CCCC3)c3cc[nH]c(=O)c23)cc1 [Example 2, 4-(1-cyclopentyl-4-oxo-4,5-dihydro-1H-pyrrolo[3,2-c]pyridin-3-yl)benzenesulfonamide]
96% | 97% |  |  | COC(=O)c1cc(-c2cn(C3CCCC3)c3cc[nH]c(=O)c23)cs1 [Example 3, methyl 4-(1-cyclopentyl-4-oxo-4,5-dihydro-1H-pyrrolo[3,2-c]pyridin-3-yl)thiophene-2-carboxylate]
99% | 99% |  |  | NC(=O)c1cc(-c2cn(C3CCCC3)c3cc[nH]c(=O)c23)cs1 [Example 4, 4-(1-cyclopentyl-4-oxo-4,5-dihydro-1H-pyrrolo[3,2-c]pyridin-3-yl)thiophene-2-carboxamide]
96% | 97% |  |  | O=c1[nH]ccc2c1c(-c1ccsc1)cn2C1CCCC1 [Example 5, 1-cyclopentyl-3-(3-thienyl)-1,5-dihydro-4H-pyrrolo[3,2-c]pyridin-4-one]
99% | 98% |  |  | NS(=O)(=O)c1ccc(-c2nn(C3CCCCC3)c3cc[nH]c(=O)c23)cc1 [Example 6, 4-(1-cyclohexyl-4-oxo-4,5-dihydro-1H-pyrazolo[4,3-c]pyridin-3-yl)benzenesulfonamide]
90% | 95% |  |  | CCC(CC)n1cc(-c2csc(C(=O)OC)c2)c2c(=O)[nH]ccc21 [Example 7, methyl 4-(4-oxo-1-(pentan-3-yl)-4,5-dihydro-1H-pyrrolo[3,2-c]pyridin-3-yl)thiophene-2-carboxylate]
98% | 98% |  |  | CCC(CC)n1cc(-c2csc(C(N)=O)c2)c2c(=O)[nH]ccc21 [Example 8, 4-(4-oxo-1-(pentan-3-yl)-4,5-dihydro-1H-pyrrolo[3,2-c]pyridin-3-yl)thiophene-2-carboxamide]
93% | 97% |  |  | CCC(CC)n1cc(-c2csc(C#N)c2)c2c(=O)[nH]ccc21 [Example 9, 4-(4-oxo-1-(pentan-3-yl)-4,5-dihydro-1H-pyrrolo[3,2-c]pyridin-3-yl)thiophene-2-carbonitrile]
 |  | 38% |  | O=c1[nH]ccc2c(-c3ccccc3)nn(-c3ccccc3)c12 [Example 10, 1,3-diphenyl-1,6-dihydro-7H-pyrazolo[3,4-c]pyridin-7-one]
66% | 55% |  |  | O=c1[nH]ccc2c(-c3ccccc3)nn(-c3ccsc3)c12 [Example 11, 3-phenyl-1-(3-thienyl)-1,6-dihydro-7H-pyrazolo[3,4-c]pyridin-7-one]
98% | 98% |  |  | COC(=O)c1cc(-c2nn(C3CCCC3)c3cc[nH]c(=O)c23)cs1 [Example 12, methyl 4-(1-cyclopentyl-4-oxo-4,5-dihydro-1H-pyrazolo[4,3-c]pyridin-3-yl)thiophene-2-carboxylate]
99% | 99% |  |  | NC(=O)c1cc(-c2nn(C3CCCC3)c3cc[nH]c(=O)c23)cs1 [Example 13, 4-(1-cyclopentyl-4-oxo-4,5-dihydro-1H-pyrazolo[4,3-c]pyridin-3-yl)thiophene-2-carboxamide]
98% | 99% |  |  | N#Cc1cc(-c2nn(C3CCCC3)c3cc[nH]c(=O)c23)cs1 [Example 14, 4-(1-cyclopentyl-4-oxo-4,5-dihydro-1H-pyrazolo[4,3-c]pyridin-3-yl)thiophene-2-carbonitrile]
97% | 99% |  |  | NS(=O)(=O)c1ccc(-c2nn(C3CCOCC3)c3cc[nH]c(=O)c23)cc1 [Example 15, 4-(4-oxo-1-(tetrahydro-2H-pyran-4-yl)-4,5-dihydro-1H-pyrazolo[4,3-c]pyridin-3-yl)benzenesulfonamide]
88% | 93% |  |  | NS(=O)(=O)c1ccc(-c2cn(C3CCOCC3)c3cc[nH]c(=O)c23)cc1 [Example 16, 4-(4-oxo-1-(tetrahydro-2H-pyran-4-yl)-4,5-dihydro-1H-pyrrolo[3,2-c]pyridin-3-yl)benzenesulfonamide]
69% | 87% |  |  | CCC(COC)n1cc(-c2ccc(S(N)(=O)=O)cc2)c2c(=O)[nH]ccc21 (stereo not shown) [Example 17, 4-(1-(1-methoxybutan-2-yl)-4-oxo-4,5-dihydro-1H-pyrrolo[3,2-c]pyridin-3-yl)benzenesulfonamide]
80% | 93% |  |  | NS(=O)(=O)c1ccc(-c2cn(C3CCOC3)c3cc[nH]c(=O)c23)cc1 (stereo not shown) [Example 18, 4-(4-oxo-1-(tetrahydrofuran-3-yl)-4,5-dihydro-1H-pyrrolo[3,2-c]pyridin-3-yl)benzenesulfonamide]
 |  | 27% | 44% | NS(=O)(=O)c1ccc(Cn2nc(-c3ccccc3)c3cc[nH]c(=O)c32)cc1 [Example 19, 4-((7-oxo-3-phenyl-6,7-dihydro-1H-pyrazolo[3,4-c]pyridin-1-yl)methyl)benzenesulfonamide]
35% | 59% |  |  | CCC(COC)n1cc(-c2ccc(CC#N)cc2)c2c(=O)[nH]ccc21 (stereo not shown) [Example 20, (4-(1-(1-methoxybutan-2-yl)-4-oxo-4,5-dihydro-1H-pyrrolo[3,2-c]pyridin-3-yl)phenyl)acetonitrile]
95% | 97% |  |  | COC(=O)c1cc(-c2nn(C3CCOCC3)c3cc[nH]c(=O)c23)cs1 [Example 21, methyl 4-(4-oxo-1-(tetrahydro-2H-pyran-4-yl)-4,5-dihydro-1H-pyrazolo[4,3-c]pyridin-3-yl)thiophene-2-carboxylate]
53% | 77% |  |  | N#CCc1ccc(-c2cn(C3CCOC3)c3cc[nH]c(=O)c23)cc1 (stereo not shown) [Example 22, (4-(4-oxo-1-(tetrahydrofuran-3-yl)-4,5-dihydro-1H-pyrrolo[3,2-c]pyridin-3-yl)phenyl)acetonitrile]
98% | 98% |  |  | O=C(O)c1cc(-c2nn(C3CCOCC3)c3cc[nH]c(=O)c23)cs1 [Example 23, 4-(4-oxo-1-(tetrahydro-2H-pyran-4-yl)-4,5-dihydro-1H-pyrazolo[4,3-c]pyridin-3-yl)thiophene-2-carboxylic acid]
33% | 35% |  |  | CCC(COC)n1cc(-c2ccc(C#N)cc2)c2c(=O)[nH]ccc21 (stereo not shown) [Example 24, 4-(1-(1-methoxybutan-2-yl)-4-oxo-4,5-dihydro-1H-pyrrolo[3,2-c]pyridin-3-yl)benzonitrile]
71% | 77% |  |  | N#CCc1ccc(-c2cn(C3CCOCC3)c3cc[nH]c(=O)c23)cc1 [Example 25, (4-(4-oxo-1-(tetrahydro-2H-pyran-4-yl)-4,5-dihydro-1H-pyrrolo[3,2-c]pyridin-3-yl)phenyl)acetonitrile]
41% | 20% |  |  | CCC(COC)n1cc(-c2ccc(C(N)=O)cc2)c2c(=O)[nH]ccc21 (stereo not shown) [Example 26, 4-(1-(1-methoxybutan-2-yl)-4-oxo-4,5-dihydro-1H-pyrrolo[3,2-c]pyridin-3-yl)benzamide]

Reference: US9371320B2, “Heterocyclic compound” (TAKEDA PHARMACEUTICAL COMPANY LIMITED, priority 2012, dated 2016)
